ChEMBL document CHEMBL1142813, “Synthesis of tripeptides as potent Yersinia protein tyrosine phosphatase inhibitors” (Bioorg Med Chem Lett, 2005)
pIC50: −log10 of the molar value.

Assays:
[1] = molecular target: T1, Tyrosine-protein phosphatase non-receptor type 1 (Homo sapiens, UniProt P18031); assay: Inhibitory concentration against human PTP1B expressed in Escherichia coli BL21 cells
T1 sequence (P18031 whole entry): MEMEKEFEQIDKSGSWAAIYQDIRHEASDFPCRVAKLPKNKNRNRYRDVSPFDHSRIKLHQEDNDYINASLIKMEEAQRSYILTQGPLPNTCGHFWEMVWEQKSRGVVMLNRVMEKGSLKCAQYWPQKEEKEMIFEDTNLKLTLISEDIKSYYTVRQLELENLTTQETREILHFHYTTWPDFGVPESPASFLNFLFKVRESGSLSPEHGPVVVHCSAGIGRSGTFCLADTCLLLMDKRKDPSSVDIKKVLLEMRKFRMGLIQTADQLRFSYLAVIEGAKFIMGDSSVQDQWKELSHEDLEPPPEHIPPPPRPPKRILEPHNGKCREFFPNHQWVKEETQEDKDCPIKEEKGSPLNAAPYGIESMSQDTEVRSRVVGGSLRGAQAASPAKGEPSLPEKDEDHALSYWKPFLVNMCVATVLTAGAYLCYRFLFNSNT

[2] = molecular target: Secreted effector protein (Yersinia pestis, UniProt O68720); assay: Inhibitory concentration against Yersinia pestis YopH expressed in Escherichia coli BL21 cells
Chain of Secreted effector protein (O68720 whole entry): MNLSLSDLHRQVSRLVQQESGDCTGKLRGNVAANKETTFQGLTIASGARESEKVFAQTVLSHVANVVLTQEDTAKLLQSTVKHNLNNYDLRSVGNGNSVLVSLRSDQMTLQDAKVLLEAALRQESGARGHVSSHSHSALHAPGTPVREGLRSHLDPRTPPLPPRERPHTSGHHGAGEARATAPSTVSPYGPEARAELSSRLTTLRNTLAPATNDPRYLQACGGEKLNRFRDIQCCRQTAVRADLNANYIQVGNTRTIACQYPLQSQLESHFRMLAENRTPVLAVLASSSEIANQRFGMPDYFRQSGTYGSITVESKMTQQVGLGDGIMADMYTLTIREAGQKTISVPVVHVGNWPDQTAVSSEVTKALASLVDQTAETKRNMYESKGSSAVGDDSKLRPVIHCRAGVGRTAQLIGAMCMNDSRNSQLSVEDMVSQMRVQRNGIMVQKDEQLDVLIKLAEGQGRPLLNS

SMILES | pIC50 [1] | pIC50 [2]
CC(C)C[C@H](CC(=O)[C@H](Cc1ccc(OCC(=O)O)cc1)NC(=O)[C@H](CCC(=O)OCc1ccccc1)NC(=O)OCC1c2ccccc2-c2ccccc21)C(N)=O | 5.54 | 5.74
CC(C)C[C@H](CC(=O)[C@H](Cc1ccc(OCC(=O)O)cc1)NC(=O)[C@H](CCC(=O)OCc1ccccc1)NC(=O)CCc1cccc2ccccc12)C(N)=O | 4.92 | 4.74
CC(C)C[C@H](CC(=O)[C@H](Cc1ccc(C(F)(F)C(=O)O)cc1)NC(=O)[C@H](CCC(=O)OCc1ccccc1)NC(=O)OCC1c2ccccc2-c2ccccc21)C(N)=O | 5.51 | 5.60
CC(C)C[C@H](CC(=O)[C@H](Cc1ccc(OCC(=O)O)cc1)NC(=O)[C@H](CCC(=O)OCc1ccccc1)NC(=O)COc1ccc2ccccc2c1)C(N)=O | 4.64 | 4.52
CC(C)C[C@H](CC(=O)[C@H](Cc1ccc(OCC(=O)O)cc1)NC(=O)[C@H](CCC(=O)OCc1ccccc1)NC(=O)CCc1c[nH]c2ccccc12)C(N)=O | < 4.00 | < 4.00
CC(C)C[C@H](CC(=O)[C@H](Cc1ccc(CC(=O)O)cc1)NC(=O)[C@H](CCC(=O)OCc1ccccc1)NC(=O)OCC1c2ccccc2-c2ccccc21)C(N)=O | 5.34 | 5.62
Cc1cn(CC(=O)N[C@@H](CCC(=O)OCc2ccccc2)C(=O)N[C@@H](Cc2ccc(OCC(=O)O)cc2)C(=O)C[C@@H](CC(C)C)C(N)=O)c(=O)[nH]c1=O | < 4.00 | < 4.00
CC(C)C[C@H](CC(=O)[C@H](Cc1ccc(OCC(=O)O)cc1)NC(=O)[C@H](CCC(=O)OCc1ccccc1)NC(=O)CCc1c2ccccc2cc2ccccc12)C(N)=O | 5.19 | 4.92
CC(C)C[C@H](CC(=O)[C@H](Cc1ccc(OCC(=O)O)cc1)NC(=O)[C@H](CCC(=O)OCc1ccccc1)NC(=O)COc1cccc2ccccc12)C(N)=O | 4.89 | 4.70
Cc1ccc2c(c1)CCN2CCC(=O)N[C@@H](CCC(=O)OCc1ccccc1)C(=O)N[C@@H](Cc1ccc(OCC(=O)O)cc1)C(=O)C[C@@H](CC(C)C)C(N)=O | 5.37 | 5.25
CC(C)C[C@H](NC(=O)[C@H](Cc1ccc(OCC(=O)O)cc1)NC(=O)C(CNC(=O)OCc1ccccc1)CNC(=O)OCc1ccccc1)C(N)=O | 5.55 | 5.40
CC(C)C[C@H](CC(=O)[C@H](Cc1ccc(OC(F)(F)C(=O)O)cc1)NC(=O)[C@H](CCC(=O)OCc1ccccc1)NC(=O)OCC1c2ccccc2-c2ccccc21)C(N)=O | 5.42 | 5.72
CC(C)C[C@H](CC(=O)[C@H](Cc1ccc(OCC(=O)O)cc1)NC(=O)[C@H](CNC(=O)OCc1ccccc1)NC(=O)OCC1c2ccccc2-c2ccccc21)C(N)=O | 5.37 | 5.68
COc1ccc(Cn2nnc(CC(=O)N[C@@H](CCC(=O)OCc3ccccc3)C(=O)N[C@@H](Cc3ccc(OCC(=O)O)cc3)C(=O)C[C@@H](CC(C)C)C(N)=O)n2)cc1 | < 4.00 | < 4.00
CC(C)C[C@H](CC(=O)[C@H](Cc1ccc(OCC(=O)O)cc1)NC(=O)[C@H](CCC(=O)OCc1ccccc1)NS(=O)(=O)CCc1cccc2ccccc12)C(N)=O | 4.62 | 4.66
CC(C)C[C@H](CC(=O)[C@H](Cc1ccc(OCC(=O)O)cc1)NC(=O)[C@H](CCC(=O)OCc1ccccc1)NC(=O)CCCc1c[nH]c2ccccc12)C(N)=O | < 4.00 | < 4.00
